{"source": "paper PMC9266917", "about": "“New Peptide Functionalized Nanostructured Lipid Carriers with CNS Drugs and Evaluation Anti-proliferative Activity” (International Journal of Molecular Sciences, 2022)", "key": {"Caco-2 cell line [1]": {"test_system": "Caco-2 cell line", "assay": "MTT cell viability assay, Caco-2", "format": "cell-based", "settings": "Caco-2, 24 h incubation, free peptide or conjugate at 10 µM, n = 3 or 6", "experimental": "The MTT assay was conducted to determine metabolic activity of cells and assess cellular viability. Cells were maintained in culture incubated with DMEM further supplemented with 10% of heat-inactivated fetal bovine serum (FBS) and 1% penicillin and streptomycin at 37 °C in a controlled atmosphere of 5% CO2 (according to the ATCC recommendations). Before the experiment, SH-SY5Y cells and Caco-2 cell line were seeded in sterile, flat-bottom 96-well plates at the density of 18,000 cells per well and 6000 cells per well, respectively, and incubated for 24 h. […] Then the cells were incubated for 24 h and both negative and positive control were included with incubation with culture media and sterilized water (5:1) and DMSO 10% to promote the cell lyses, respectively. After incubation, all media was aspirated and replaced with 100 μL of MTT solution (at 0.5 mg/mL). Then, cells were incubated for 3 h in the dark. […] The absorbance was measured at 570 nm in a microplate reader (Synergy HT, Biotech Instruments inc., Winoosk, USA and Tecan Infinite M200, Tecan group Ltd., Männedorf, Switzerland). All experiments were performed in triplicates and the relative cell viability (%) was compared to control cells and calculated using the following equation: Cell viability (% of sample)=Abs sample/Abs control×100"}, "Caco-2 cell line [2]": {"test_system": "Caco-2 cell line", "assay": "Cell morphology visualization by microscope, Caco-2", "format": "cell-based", "settings": "Caco-2, 24 h incubation, 10 µM", "experimental": "(§1) After the treatments, cell morphology and growth were assessed by contrast phase microscope Lionheart FX (Biotech, USA) with use of Gen5 software (Biotech, USA) and a Leica DMI 6000B microscope equipped with a Leica DFC350 FX camera and then analyzed with the Leica LAS X imaging software (v3.7.4)."}, "SH-SY5Y cell line": {"test_system": "SH-SY5Y cell line", "assay": "Cell morphology visualization by microscope, SH-SY5Y", "format": "cell-based, human", "settings": "24 h incubation, 1 µM", "experimental": "as §1"}, "[3]": {"settings": "preliminary solubility studies; drug added with stirring until saturation of the lipid; Compritol 888 ATO (melted, 80 °C), Transcutol HP and Miglyol (room temperature); n = 3", "description": "Increasing amounts of TCP were successively added, with stirring, until saturation of the lipid was achieved. The saturation point occurred when the excess of solid TCP persisted for more than 8 h. Each determination was carried out in triplicate (n = 3)."}}}
{"compound": "KLALKLALKALKAALKLA-NH2 [MAP, model amphipathic peptide, cell-penetrating peptide]", "values": [{"measurement": "decrease of cell viability", "setting": "Caco-2 cell line [1]", "result": 20, "unit": "%"}, {"measurement": "cell viability and morphology by microscope visualization", "setting": "Caco-2 cell line [2]", "result": "decrease of cell viability and substantial morphologic changes"}, {"measurement": "cell viability and morphology by microscope visualization", "setting": "SH-SY5Y cell line", "result": "decreased substantial cell viability and showed some morphologic change with loss of normal cellular structure and round aspect"}]}
{"compound": "N[C@@H]1C[C@H]1c1ccccc1", "note": "(racemic) [TCP, (±)-trans-2-Phenylcyclopropylamine]", "values": [{"measurement": "solubility in lipids", "setting": "[3]", "result": "maximum solubility level in liquid lipid Transcutol HP"}]}
